Values after ≈ are worked out from the molar mass of the structure shown. Values joined by “and” are separate entries in the source; they are usually repeats but may differ in a detail not shown here. Identical values can stand only once. “Also recorded” adds a separate entry of the source. Like-named read-outs stand apart in the source and are kept apart here.
What was measured:
[1] = test system: Trypanosoma brucei brucei S427; test: In vitro efficacy against Trypanosoma brucei; type: cell-based
Method: Compounds 18 and 41 were assessed at the London School of Hygiene and Tropical Medicine in vitro with respect to their efficacy against the parasite Trypanosoma brucei brucei […].

adult S. mansoni = test: In vitro treatment of adult S. mansoni couples, visual evaluation by microscope; parameters: species or system Schistosoma mansoni
Method: Compounds 2, 18 and 41 were tested by Prof. Dr. Grevelding, Parasitology, Veterinary Medicine, University of Gieβen, also in the parasite Schistosoma mansoni. […] Each test was performed with 3 groups of 10 worms each. Remarkable was that different effects on the worms with respect to morphological alterations could be observed. […] Exemplarily shown in FIGS. 1 and 2 is an image of a control assay and an image of trematodes after 48 hours of incubation with compound 18.
Each one of the three groups (one group per well) comprised 10 pairs of adult S. mansoni were incubated with the substance to be tested for 24 h. As control served three groups which were incubated with medium (M199) and three groups which were incubated with medium and DMSO as solvent of the test substances. Evaluation was done visually using a microscope.
In a second experimental setting, again three groups each (one group per well) with 8 pairs of adult S. mansoni each were incubated with the compound to be tested, however for 48 h in this experiment. As control served three groups which were either incubated with medium (M199) or medium and DMSO as solvent of the test substances. Evaluation was done visually using a microscope.

[2] = test system: P. falciparum strain 3D7-Netherlands; test: In vitro IC50, 3H-hypoxanthine incorporation, P. falciparum 3D7; type: cell-based, Plasmodium falciparum; conditions: Plasmodium falciparum
Cytotoxicity HeLa = conditions: human, HeLa cells
L929 = test: Antiproliferative activity L929; type: cell-based; conditions: Mus musculus, read-out: IC50 [μg/ml] Antiproliferative activity L929
K562 = test: Antiproliferative activity K562; type: cell-based; conditions: Homo sapiens, read-out: IC50 [μg/ml] Antiproliferative activity K562
[3] = test system: Plasmodium berghei GFP MRA-865; test: Plasmodium berghei infection in the mouse model (in vivo); conditions: for life span in words: all dosages and routes of administration tested; for Activity (%): parasitemia day 4 vs untreated controls
[4] = test system: Plasmodium falciparum strain K1; test: In vitro IC50, 3H-hypoxanthine incorporation, P. falciparum K1; type: cell-based; conditions: chloroquine-resistant Plasmodium falciparum strain K1
[5] = 24 hours, 100 μM, 3 groups of 10 pairs
[6] = 48 hours, 20 μM, 3 groups of 8 pairs
[7] = 48 hours, 100 μM, 3 groups of 8 pairs
[8] = 3D7, read-out: IC50 [ng/ml] P.f.(3D7)
[9] = P. falciparum strain 3D7, read-out: IC50 [nM] P.f.(3D7)

Row | SMILES | IC50 [1] [nM] | morphological alterations of the worms (adult S. mansoni) | egg production (adult S. mansoni; 24 hours, 20 μM) | motility / vitality (adult S. mansoni; 24 hours, 20 μM) | egg production (adult S. mansoni; 24 hours, 100 μM) | motility / vitality (adult S. mansoni; 24 hours, 100 μM) | couples detectable (adult S. mansoni; [5]) | egg production (adult S. mansoni; 48 hours, 20 μM) | motility / vitality (adult S. mansoni; 48 hours, 20 μM) | couples detectable (adult S. mansoni; [6]) | egg production (adult S. mansoni; 48 hours, 100 μM) | motility / vitality (adult S. mansoni; 48 hours, 100 μM) | couples detectable (adult S. mansoni; [7]) | IC50 [2, 8] [ng/mL] | IC50 [2, 9] [nM] | IC50 (Cytotoxicity HeLa) | IC50 (L929) [µg/mL] | IC50 (K562) [µg/mL] | life span in words [3] | MSD (days) ([3]; oral 3 × 100 mg/kg) | further results
1 | COc1ccc2c(c1)CCC1C2CC[C@@]2(C)C1CC[C@H]2NCc1cc2ccccc2cc1O (stereo partly drawn) [Compound 41, 17α-[(3-Hydroxy-naphth-2-yl)-methylamino]-3-methoxy-estra-1,3,5(10)-triene] | 3580 | dorsal bending | Almost no eggs could be detected; also recorded: Almost no eggs were detectable | Males barely moved and showed only twitching; also recorded: Trematodes moved only slightly and with twitching movements | Almost no eggs could be detected | Males showed almost no motility | only in one of the groups a couple was detectable | No eggs were produced | Single trematodes showed slightly twitching movements, while the rest was non-motile | no couples could be observed in any of the groups | No eggs were detectable | Some of the worms were already dead, while others were dying | no couples could be observed in any of the groups | 1.9 | 4.4 | – | – | – | – | – | –
2 | COc1ccc2c(c1)CCC1C2CC[C@@]2(C)C1CC[C@H]2NCc1ccccc1O (stereo partly drawn) [Compound 2, 17α-(2-Hydroxyphenyl-methylamino)-3-methoxy-estra-1,3,5(10)-triene] | – | ventrally curved in a cork-screw like manner | – | – | Almost no eggs were detectable | Trematodes moved only slightly and with twitching movements | in two of the groups each one couple was detected | No eggs were detectable | The trematodes barely moved | no couples could be observed in any of the groups | No eggs were detectable | All trematodes were dead | no couples could be observed in any of the groups | 2.9 | 7.4 | 3.1 µg/mL (≈ 7.92 µM) | 1.9 (≈ 4.85 µM) | 0.5 (≈ 1.28 µM) | considerably extended the life span | 15.33 (n = 3) days | MSD (days) ([3]; oral 3 × 10 mg/kg): 8.7 (n = 3) days; Activity (%) ([3]; oral 3 × 10 mg/kg): 46.8%; MSD (days) ([3]; oral 3 × 30 mg/kg): 13 (n = 3) days; Activity (%) ([3]; oral 3 × 30 mg/kg): 99.4%; Activity (%) ([3]; oral 3 × 100 mg/kg): 99.7%; MSD (days) ([3]; sc 3 × 10 mg/kg): 7 (n = 3) days; Activity (%) ([3]; sc 3 × 10 mg/kg): 17.7%; MSD (days) ([3]; sc 3 × 30 mg/kg): 14 (n = 3) days; Activity (%) ([3]; sc 3 × 30 mg/kg): 61.8%
3 | COc1ccc2c(c1)CCC1C2CC[C@@]2(C)C1CC[C@@H]2NCc1cc2ccccc2cc1O (stereo partly drawn) [Compound 18, 17β-[(3-Hydroxynaphth-2-yl)-methylamino]-3-methoxy-estra-1,3,5(10)-triene] | 930 | ventral bending | Almost no eggs were detectable | Males barely moved and showed only twitching | Almost no eggs were detectable | The trematodes rarely showed slightly twitching movements | no couples could be detected | No eggs were detectable | all worms were dead | no couples could be observed in any of the groups | No eggs were detectable | all worms were dead | no couples could be observed in any of the groups | 3.1 | 7 | – | – | – | – | – | couples detectable (adult S. mansoni; 24 hours, 20 μM, 3 groups of 10 pairs): no couples could be detected
4 | COc1ccc2c(c1)CCC1C2CC[C@@]2(C)C1CC[C@@H]2NCc1ccccc1O (stereo partly drawn) [Compound 1, 17β-(2-Hydroxyphenyl-methylamino)-3-methoxy-estra-1,3,5(10)-triene] | – | – | – | – | – | – | – | – | – | – | – | – | – | – | 50 | 11 µM and 4.3 µg/mL | 2.2 (≈ 5.62 µM) | 0.8 (≈ 2.04 µM) | considerably extended the life span | 16.3 (n = 3) days | IC50 [4]: 73 nM; IC50 ([2]; P. falciparum strain 3D7, read-out: IC50 [ng/ml] P.f.(3D7)): 19.8 ng/mL; Activity (%) ([3]; oral 3 × 100 mg/kg): 99%; MSD (days) ([3]; sc 3 × 10 mg/kg): 10.2 (n = 3) days; Activity (%) ([3]; sc 3 × 10 mg/kg): 47%; MSD (days) ([3]; sc 3 × 30 mg/kg): 15 (n = 3) days; Activity (%) ([3]; sc 3 × 30 mg/kg): 94%
